Reference: ChEMBL document CHEMBL1124578, “A potent, tissue-selective, synthetic inhibitor of HMG-CoA reductase” (J Med Chem, 1989)

Assays:
[1] = Ratio of the mean IC50 for sterol-synthesis inhibition of spleen relative to hepatocytes in rat; type: functional, Hepatocyte
[2] = Ratio of the mean IC50 for sterol-synthesis inhibition of testes relative to hepatocytes in rat; type: functional, Hepatocyte
[3] = Ratio of the mean IC50 for sterol-synthesis inhibition of adrenal relative to hepatocytes in rat; type: functional, Hepatocyte
[4] = Ratio of the mean IC50 for sterol-synthesis inhibition of hepatocytes relative to hepatocytes in rat; type: functional, Hepatocyte
[5] = system: HMG-CoA reductase (Rattus norvegicus); assay: In vitro inhibition of rat liver microsomal HMG-CoA reductase activity; No Activity

Row | IC50 [5] | SMILES | Ratio [1] | Ratio [2] | Ratio [3] | Ratio [4]
1 | – | Cn1nnnc1C(/C=C/[C@@H]1C[C@@H](O)CC(=O)O1)=C(c1ccc(F)cc1)c1ccc(F)cc1 | 149 | 86 | 76 | 1
2 | Not Active | Cn1nnnc1C(/C=C/[C@H]1C[C@H](O)CC(=O)O1)=C(c1ccc(F)cc1)c1ccc(F)cc1 | – | – | – | –
3 | – | CC[C@H](C)C(=O)O[C@H]1C[C@@H](C)C=C2C=C[C@H](C)[C@H](CC[C@@H]3C[C@@H](O)CC(=O)O3)[C@H]21 [LOVASTATIN] | 1.2 | 1.3 | 1 | 1
